# Laboratory results as given in paper PMC9395488, “First-in-human study of IM156, a novel potent biguanide oxidative phosphorylation (OXPHOS) inhibitor, in patients with advanced solid tumors” (Investigational New Drugs, 2022).
# Tested on: patients with advanced solid tumors
# Assay: First-in-human phase 1 dose-escalation study: safety, DLTs, adverse events
# Type: in vivo
# Source text: This multicenter first-in-human dose-escalation phase 1 study (clinicaltrials.gov identifier: NCT03272256) was designed to determine the MTD or RP2D and to evaluate the safety and tolerability of IM156. Secondary endpoints included PK characteristics, efficacy assessment (objective response rate [ORR], disease control rate [DCR], duration of response [DoR] and progression-free survival [PFS]). Furthermore, exploratory objectives included identification and profiling of IM156 metabolites, evaluations of exploratory PD markers of IM156, and evaluations of any potential relationship between putative biomarkers and safety/efficacy parameters of IM156. The study was conducted in accordance with Good Clinical Practice, the International Council for Harmonisation, and guidelines governing clinical study conduct and the ethical principles originating from the Declaration of Helsinki. The study was approved by each Institutional Review Board and patients provided written informed consent. Patients were enrolled at three sites in South Korea.
# The initial dose and schedule of IM156 was chosen based on animal toxicology studies. […] IM156 was administered in the fasted state, with no food for at least 2 h before and 1 h after dosing.
# Three DLT-evaluable patients were enrolled at each dose level. If there were no DLTs or other prohibitive adverse events (AEs), the Safety Committee was allowed to recommend escalation to the next highest dose level. If 1 DLT occurred in the first 3 DLT-evaluable patients, enrollment in that cohort was expanded to an additional 3 DLT-evaluable patients; if ≥ 2 DLTs were reported in a cohort, that dose was considered above the MTD.
# Safety was assessed through vital signs, weight, laboratory assessments, physical examinations, electrocardiogram, and reporting of AEs as graded by the National Cancer Institute’s Common Terminology Criteria for Adverse Events v4.03 (NCI-CTCAE).
# DLTs were defined as the following AEs if they were attributed as related to IM156: asymptomatic grade 4 neutropenia lasting for ≥ 5 days; febrile neutropenia, regardless of grade; grade 4 thrombocytopenia or grade 3 thrombocytopenia with bleeding; any grade ≥ 3 non-hematologic AE (except grade 3 hypertension and grade 3 nausea, vomiting or diarrhea for which proper measures for prevention and treatment were not implemented, and alopecia); blood lactate levels > 5 mmol; grade ≥ 2 AE prohibiting dosing of IM156 for ≥ 21 continuous days except for alterations in serum calcium or phosphorus levels. The safety analysis includes all patients who received at least one dose of study drug.
# The safety population was defined as all patients who received at least one dose of IM156. The PK population was not defined in the protocol but included all patients with sufficient PK data to perform adequate PK modeling. The efficacy population included all patients who underwent at least one tumor imaging assessment while receiving IM156. Safety was assessed using descriptive statistics (e.g., DLTs, AEs, laboratory tests, physical examination, 12-lead ECG). The incidence and number of events were reported for the DLTs observed in Cycle 1 per dose group. […] Adverse events and TRAEs were standardized with the System Organ Class and the Preferred Term using the Medical Dictionary for Regulatory Activities v23.0. In addition, TEAEs, serious adverse events (SAEs), TEAE severity, and TEAEs leading to withdrawal were presented by dose group. Efficacy data were to be presented by Waterfall and Swim Lane plots. Time to event endpoints (e.g., DoR, PFS) were determined using Kaplan–Meier estimations with the median value for each endpoint summarized.
# [1] = DL1 100 mg orally every other day (n=3)
structure (smiles),measurement,setting,value
NC(=Nc1ccc(OC(F)(F)F)cc1)N=C(N)N1CCCC1 [IM156],SAE Abdominal distension: Causality,100 mg QOD,Unlikely
same,SAE Abdominal distension: Dose Interrupted,100 mg QOD,Yes
same,SAE Abdominal distension: Grade,100 mg QOD,2
same,SAE Abdominal distension: Outcome,100 mg QOD,Recovered without sequelae
same,SAE Gastric Obstruction: Causality,100 mg QOD,Unlikely
same,SAE Gastric Obstruction: Dose Interrupted,100 mg QOD,Yes
same,SAE Gastric Obstruction: Grade,100 mg QOD,3
same,SAE Gastric Obstruction: Outcome,100 mg QOD,Recovered without sequelae
same,SAE Ileus: Causality,200 mg QOD,Unlikely
same,SAE Ileus: Dose Interrupted,200 mg QOD,No
same,SAE Ileus: Grade,200 mg QOD,3
same,SAE Ileus: Outcome,200 mg QOD,Recovered without sequelae
same,SAE Cystitis: Causality,800 mg QOD,Unlikely
same,SAE Cystitis: Dose Interrupted,800 mg QOD,Yes
same,SAE Cystitis: Grade,800 mg QOD,2
same,SAE Cystitis: Outcome,800 mg QOD,Recovered without sequelae
same,SAE Worsen abdominal pain: Causality,800 mg QOD,Unlikely
same,SAE Worsen abdominal pain: Dose Interrupted,800 mg QOD,Yes
same,SAE Worsen abdominal pain: Grade,800 mg QOD,3
same,SAE Worsen abdominal pain: Outcome,800 mg QOD,Resolved to Grade 1
same,SAE Akathisia: Causality,"1,200 mg QD",Unlikely
same,SAE Akathisia: Dose Interrupted,"1,200 mg QD",No
same,SAE Akathisia: Grade,"1,200 mg QD",2
same,SAE Akathisia: Outcome,"1,200 mg QD",Recovered without sequelae
same,SAE Lethargy: Causality,"1,200 mg QD",Unlikely
same,SAE Lethargy: Dose Interrupted,"1,200 mg QD",Yes
same,SAE Lethargy: Grade,"1,200 mg QD",2
same,SAE Lethargy: Outcome,"1,200 mg QD",Recovered without sequelae
same,SAE Perforated Appendicitis: Causality,"1,200 mg QD",Unlikely
same,SAE Perforated Appendicitis: Dose Interrupted,"1,200 mg QD",No
same,SAE Perforated Appendicitis: Grade,"1,200 mg QD",3
same,SAE Perforated Appendicitis: Outcome,"1,200 mg QD",Recovered without sequelae
same,tolerability,"1,200 mg QD, due to nausea",not well tolerated
same,SAE Nausea: Causality,"1,200 mg QOD",Possible
same,SAE Nausea: Dose Interrupted,"1,200 mg QOD",Yes
same,SAE Nausea: Grade,"1,200 mg QOD",3
same,trend of blood lactate levels with dose or exposure,"100 to 1,200 mg",no trend
same,"dose-limiting toxicities (DLTs), all dose levels","100 to 1,200 mg QOD or QD, cycle 1",no DLTs
same,"TEAE Abdominal distension, grade 2",DL1 100 mg QOD (n=3),1
same,"TEAE Ascites, grade 1",DL1 100 mg QOD (n=3),1
same,"TEAE Blood creatinine increased, grade 1",DL1 100 mg QOD (n=3),1
same,"TEAE Decreased appetite, grade 1",DL1 100 mg QOD (n=3),1
same,"TEAE Diarrhoea, grade 2",DL1 100 mg QOD (n=3),1
same,"TEAE Gastrointestinal pain, grade 2",DL1 100 mg QOD (n=3),1
same,"TEAE Hypoalbuminaemia, grade 2",DL1 100 mg QOD (n=3),1
same,"TEAE Large intestinal obstruction, grade 2",DL1 100 mg QOD (n=3),1
same,"TEAE Nausea, grade 1",DL1 100 mg QOD (n=3),1
same,"TEAE Obstruction gastric, grade 3",DL1 100 mg QOD (n=3),1
same,"TEAE Proctalgia, grade 2",DL1 100 mg QOD (n=3),1
same,"TEAE Pyrexia, grade 1",DL1 100 mg QOD (n=3),1
same,"TEAE Vomiting, grade 1",DL1 100 mg QOD (n=3),1
same,"TRAE Abdominal Pain, > G3 (patients)","DL1 100 mg QOD oral, N = 3",0
same,"TRAE Abdominal Pain, All grades (patients)","DL1 100 mg QOD oral, N = 3",0
same,"TRAE Blood Lactic Acid increased, > G3 (patients)","DL1 100 mg QOD oral, N = 3",0
same,"TRAE Blood Lactic Acid increased, All grades (patients)","DL1 100 mg QOD oral, N = 3",0
same,"TRAE Constipation, > G3 (patients)","DL1 100 mg QOD oral, N = 3",0
same,"TRAE Constipation, All grades (patients)","DL1 100 mg QOD oral, N = 3",0
same,"TRAE Decreased appetite, > G3 (patients)","DL1 100 mg QOD oral, N = 3",0
same,"TRAE Decreased appetite, All grades (patients)","DL1 100 mg QOD oral, N = 3",0
same,"TRAE Diarrhoea, > G3 (patients)","DL1 100 mg QOD oral, N = 3",0
same,"TRAE Diarrhoea, All grades (patients)","DL1 100 mg QOD oral, N = 3",0
same,"TRAE Fatigue, > G3 (patients)","DL1 100 mg QOD oral, N = 3",0
same,"TRAE Fatigue, All grades (patients)","DL1 100 mg QOD oral, N = 3",0
same,"TRAE Insomnia, > G3 (patients)","DL1 100 mg QOD oral, N = 3",0
same,"TRAE Insomnia, All grades (patients)","DL1 100 mg QOD oral, N = 3",0
same,"TRAE Nausea, > G3 (patients)","DL1 100 mg QOD oral, N = 3",0
same,"TRAE Nausea, All grades (patients)","DL1 100 mg QOD oral, N = 3",0
same,"TRAE Vomiting, > G3 (patients)","DL1 100 mg QOD oral, N = 3",0
same,"TRAE Vomiting, All grades (patients)","DL1 100 mg QOD oral, N = 3",0
same,TEAE Adrenal insufficiency grade 1,[1],0
same,TEAE Adrenal insufficiency grade 2,[1],0
same,TEAE Adrenal insufficiency grade 3,[1],0
same,TEAE Adrenal insufficiency grade 4,[1],0
same,TEAE Anaemia grade 1,[1],0
same,TEAE Anaemia grade 2,[1],1
same,TEAE Anaemia grade 3,[1],0
same,TEAE Anaemia grade 4,[1],0
same,TEAE Appendicitis perforated grade 1,[1],0
same,TEAE Appendicitis perforated grade 2,[1],0
same,TEAE Appendicitis perforated grade 3,[1],0
same,TEAE Appendicitis perforated grade 4,[1],0
same,TEAE Back pain grade 1,[1],0
same,TEAE Back pain grade 2,[1],0
same,TEAE Back pain grade 3,[1],0
same,TEAE Back pain grade 4,[1],0
same,TEAE Cystitis grade 1,[1],0
same,TEAE Cystitis grade 2,[1],0
same,TEAE Cystitis grade 3,[1],0
same,TEAE Cystitis grade 4,[1],0
same,TEAE Dry skin grade 1,[1],0
same,TEAE Dry skin grade 2,[1],0
same,TEAE Dry skin grade 3,[1],0
same,TEAE Dry skin grade 4,[1],0
same,TEAE Flank pain grade 1,[1],0
same,TEAE Flank pain grade 2,[1],0
same,TEAE Flank pain grade 3,[1],0
same,TEAE Flank pain grade 4,[1],0
same,TEAE Hypertension grade 1,[1],0
same,TEAE Hypertension grade 2,[1],0
same,TEAE Hypertension grade 3,[1],0
same,TEAE Hypertension grade 4,[1],0
same,TEAE Hypotension grade 1,[1],0
same,TEAE Hypotension grade 2,[1],0
same,TEAE Hypotension grade 3,[1],0
same,TEAE Hypotension grade 4,[1],0
same,TEAE Insomnia grade 1,[1],0
same,TEAE Insomnia grade 2,[1],0
same,TEAE Insomnia grade 3,[1],0
same,TEAE Insomnia grade 4,[1],0
same,TEAE Pain in extremity grade 1,[1],0
same,TEAE Pain in extremity grade 2,[1],0
same,TEAE Pain in extremity grade 3,[1],0
same,TEAE Pain in extremity grade 4,[1],0
same,TEAE Pruritus grade 1,[1],0
same,TEAE Pruritus grade 2,[1],0
same,TEAE Pruritus grade 3,[1],0
same,TEAE Pruritus grade 4,[1],0
